Source: PubChem BioAssay (NCI)
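These data come from cells grown in 96-well plates and exposed to compound for 48 hours at five concentrations. The concentration for full growth arrest is given as TGI.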

Key:
Test in all cases: NCI-60 cell line screen, 48 h
786-0 renal = system: 786-0 renal
A498 renal = system: A498 renal
A549 NSCLC = system: A549 NSCLC
ACHN renal = system: ACHN renal
BT-549 breast = system: BT-549 breast
CAKI-1 renal = system: CAKI-1 renal
CCRF-CEM leukemia = system: CCRF-CEM leukemia
COLO 205 colon = system: COLO 205 colon
DU-145 prostate = system: DU-145 prostate
EKVX NSCLC = system: EKVX NSCLC
HCC-2998 colon = system: HCC-2998 colon
HCT-116 colon = system: HCT-116 colon
HCT-15 colon = system: HCT-15 colon
HL-60(TB) leukemia = system: HL-60(TB) leukemia
HOP-62 NSCLC = system: HOP-62 NSCLC
HS 578T breast = system: HS 578T breast
HT29 colon = system: HT29 colon
IGROV1 ovarian = system: IGROV1 ovarian
K-562 leukemia = system: K-562 leukemia
KM12 colon = system: KM12 colon
LOX IMVI melanoma = system: LOX IMVI melanoma
M14 melanoma = system: M14 melanoma
MALME-3M melanoma = system: MALME-3M melanoma
MCF7 breast = system: MCF7 breast
MDA-MB-231 breast = system: MDA-MB-231 breast
MDA-MB-435 = system: MDA-MB-435
MDA-N = system: MDA-N
MOLT-4 leukemia = system: MOLT-4 leukemia
NCI-H23 lung = system: NCI-H23 lung
NCI-H460 lung = system: NCI-H460 lung
NCI-H522 lung = system: NCI-H522 lung
NCI/ADR-RES ovarian = system: NCI/ADR-RES ovarian
OVCAR-3 ovarian = system: OVCAR-3 ovarian
OVCAR-4 ovarian = system: OVCAR-4 ovarian
OVCAR-5 ovarian = system: OVCAR-5 ovarian
OVCAR-8 ovarian = system: OVCAR-8 ovarian
PC-3 prostate = system: PC-3 prostate
RPMI-8226 leukemia = system: RPMI-8226 leukemia
RXF 393 renal = system: RXF 393 renal
SF-268 CNS = system: SF-268 CNS
SF-295 CNS = system: SF-295 CNS
SF-539 CNS = system: SF-539 CNS
SK-MEL-2 melanoma = system: SK-MEL-2 melanoma
SK-MEL-28 melanoma = system: SK-MEL-28 melanoma
SK-MEL-5 melanoma = system: SK-MEL-5 melanoma
SK-OV-3 ovarian = system: SK-OV-3 ovarian
SN12C renal = system: SN12C renal
SNB-19 CNS = system: SNB-19 CNS
SR leukemia = system: SR leukemia
SW-620 colon = system: SW-620 colon
T-47D breast = system: T-47D breast
TK-10 renal = system: TK-10 renal
U251 CNS = system: U251 CNS
UACC-257 melanoma = system: UACC-257 melanoma
UACC-62 melanoma = system: UACC-62 melanoma
UO-31 renal = system: UO-31 renal
NCI-H226 lung = system: NCI-H226 lung
SNB-75 CNS = system: SNB-75 CNS

Compound: CC[C@H](C)[C@H](NC(=O)[C@@]1(O)[C@H](O)[C@]2(CC)C=CCN3CC[C@@]4(c5cc(Br)c(OC)cc5N(C)[C@@H]14)[C@@H]32)C(=O)OC
- TGI (786-0 renal): > 100 µM
- TGI (A498 renal): > 100 µM
- TGI (A549 NSCLC): > 100 µM
- TGI (ACHN renal): > 100 µM
- TGI (BT-549 breast): > 100 µM
- TGI (CAKI-1 renal): > 100 µM
- TGI (CCRF-CEM leukemia): 67.3 µM
- TGI (COLO 205 colon): 29.2 µM
- TGI (DU-145 prostate): > 100 µM
- TGI (EKVX NSCLC): > 100 µM
- TGI (HCC-2998 colon): 87.7 µM
- TGI (HCT-116 colon): > 100 µM
- TGI (HCT-15 colon): > 100 µM
- TGI (HL-60(TB) leukemia): 70.8 µM
- TGI (HOP-62 NSCLC): > 100 µM
- TGI (HS 578T breast): 77.1 µM
- TGI (HT29 colon): 30.5 µM
- TGI (IGROV1 ovarian): > 100 µM
- TGI (K-562 leukemia): > 100 µM
- TGI (KM12 colon): > 100 µM
- TGI (LOX IMVI melanoma): 35.5 µM
- TGI (M14 melanoma): 84.5 µM
- TGI (MALME-3M melanoma): 83.7 µM
- TGI (MCF7 breast): > 100 µM
- TGI (MDA-MB-231 breast): 46.5 µM
- TGI (MDA-MB-435): 71.3 µM
- TGI (MDA-N): > 100 µM
- TGI (MOLT-4 leukemia): > 100 µM
- TGI (NCI-H23 lung): > 100 µM
- TGI (NCI-H460 lung): > 100 µM
- TGI (NCI-H522 lung): > 100 µM
- TGI (NCI/ADR-RES ovarian): > 100 µM
- TGI (OVCAR-3 ovarian): > 100 µM
- TGI (OVCAR-4 ovarian): 50 µM
- TGI (OVCAR-5 ovarian): > 100 µM
- TGI (OVCAR-8 ovarian): > 100 µM
- TGI (PC-3 prostate): > 100 µM
- TGI (RPMI-8226 leukemia): 34.9 µM
- TGI (RXF 393 renal): > 100 µM
- TGI (SF-268 CNS): > 100 µM
- TGI (SF-295 CNS): > 100 µM
- TGI (SF-539 CNS): 91.3 µM
- TGI (SK-MEL-2 melanoma): > 100 µM
- TGI (SK-MEL-28 melanoma): 38.7 µM
- TGI (SK-MEL-5 melanoma): 87.4 µM
- TGI (SK-OV-3 ovarian): > 100 µM
- TGI (SN12C renal): > 100 µM
- TGI (SNB-19 CNS): > 100 µM
- TGI (SR leukemia): > 100 µM
- TGI (SW-620 colon): > 100 µM
- TGI (T-47D breast): > 100 µM
- TGI (TK-10 renal): > 100 µM
- TGI (U251 CNS): > 100 µM
- TGI (UACC-257 melanoma): 62.1 µM
- TGI (UACC-62 melanoma): 28.9 µM
- TGI (UO-31 renal): > 100 µM

Compound: S=C(N1CCN(c2ccccc2)CC1)N1CCN(c2ccccc2)CC1
- TGI (786-0 renal): > 100 µM
- TGI (A498 renal): > 100 µM
- TGI (A549 NSCLC): > 100 µM
- TGI (ACHN renal): > 100 µM
- TGI (BT-549 breast): > 100 µM
- TGI (CAKI-1 renal): > 100 µM
- TGI (CCRF-CEM leukemia): 68.7 µM
- TGI (COLO 205 colon): > 100 µM
- TGI (DU-145 prostate): > 100 µM
- TGI (EKVX NSCLC): > 100 µM
- TGI (HCC-2998 colon): > 100 µM
- TGI (HCT-116 colon): > 100 µM
- TGI (HCT-15 colon): > 100 µM
- TGI (HOP-62 NSCLC): > 100 µM
- TGI (HS 578T breast): > 100 µM
- TGI (HT29 colon): > 100 µM
- TGI (IGROV1 ovarian): > 100 µM
- TGI (K-562 leukemia): > 100 µM
- TGI (KM12 colon): > 100 µM
- TGI (M14 melanoma): > 100 µM
- TGI (MALME-3M melanoma): > 100 µM
- TGI (MCF7 breast): > 100 µM
- TGI (MDA-MB-231 breast): > 100 µM
- TGI (MDA-MB-435): > 100 µM
- TGI (MDA-N): > 100 µM
- TGI (MOLT-4 leukemia): > 100 µM
- TGI (NCI-H226 lung): > 100 µM
- TGI (NCI-H23 lung): > 100 µM
- TGI (NCI-H460 lung): > 100 µM
- TGI (NCI-H522 lung): > 100 µM
- TGI (NCI/ADR-RES ovarian): > 100 µM
- TGI (OVCAR-3 ovarian): > 100 µM
- TGI (OVCAR-4 ovarian): > 100 µM
- TGI (OVCAR-5 ovarian): > 100 µM
- TGI (OVCAR-8 ovarian): > 100 µM
- TGI (PC-3 prostate): > 100 µM
- TGI (RPMI-8226 leukemia): > 100 µM
- TGI (RXF 393 renal): > 100 µM
- TGI (SF-268 CNS): > 100 µM
- TGI (SF-295 CNS): > 100 µM
- TGI (SK-MEL-2 melanoma): > 100 µM
- TGI (SK-MEL-28 melanoma): > 100 µM
- TGI (SK-MEL-5 melanoma): > 100 µM
- TGI (SK-OV-3 ovarian): > 100 µM
- TGI (SN12C renal): > 100 µM
- TGI (SNB-19 CNS): > 100 µM
- TGI (SNB-75 CNS): > 100 µM
- TGI (SW-620 colon): > 100 µM
- TGI (T-47D breast): > 100 µM
- TGI (TK-10 renal): > 100 µM
- TGI (U251 CNS): > 100 µM
- TGI (UACC-257 melanoma): > 100 µM
- TGI (UACC-62 melanoma): > 100 µM
- TGI (UO-31 renal): > 100 µM
